Literature values, collected in patent US7125886B2, “5-HT3 receptor antagonists and methods of use” (Aryx Therapeutics, priority 2002, dated 2006).

Columns and labels:
5-HT3 receptor = target: T1, 5-HT3 receptor (Homo sapiens, UniProt P46098)
T1 sequence (P46098 24-478): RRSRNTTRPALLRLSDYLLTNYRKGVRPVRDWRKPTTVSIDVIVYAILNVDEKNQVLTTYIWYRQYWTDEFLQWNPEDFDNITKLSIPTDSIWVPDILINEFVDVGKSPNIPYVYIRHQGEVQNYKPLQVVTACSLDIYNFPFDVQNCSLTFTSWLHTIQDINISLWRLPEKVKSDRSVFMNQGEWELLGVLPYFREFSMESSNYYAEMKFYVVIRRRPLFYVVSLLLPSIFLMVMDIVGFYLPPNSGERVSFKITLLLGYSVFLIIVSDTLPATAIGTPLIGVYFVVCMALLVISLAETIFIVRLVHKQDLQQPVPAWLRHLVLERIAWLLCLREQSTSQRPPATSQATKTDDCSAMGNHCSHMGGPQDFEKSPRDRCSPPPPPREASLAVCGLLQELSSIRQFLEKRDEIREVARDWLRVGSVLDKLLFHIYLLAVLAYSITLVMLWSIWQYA

[1] = received by the FDA
[2] = up to 3 months of treatment; versus placebo and mebeverine
[3] = at least 12 weeks of treatment, patients with IBS

Cc1[nH]cnc1CN1CCc2c(c3cccc(O)c3n2C)C1=O [6-Hydroxy-alosetron]
potency relative to alosetron (5-HT3 receptor): twice as potent as alosetron

Cc1[nH]cnc1CN1CCc2c(c3cccc(O[C@@H]4O[C@H](C(=O)O)[C@@H](O)[C@H](O)[C@H]4O)c3n2C)C1=O [6-OH-alosetron glucuronide]
5-HT3 receptor binding affinity (5-HT3 receptor): potent

Cc1[nH]cnc1CN1CCc2c(c3ccccc3n2C)C1=O [Alosetron, 2,3,4,5-tetrahydro-5-methyl-2-[(5-methyl-1H-imidazol-4-yl)methyl]-1H-pyrido [4,3-b]indol-1-one]
reports of deaths associated with alosetron [1]: 3
improving perception of visceral pain, spasms and diarrhea [2]: significantly superior
greater drug exposure in females than males (females compared with males): 60%
mean peak plasma concentration higher in females (females compared with males): 45–100%
half-life (in vivo): 1.5 h
oral bioavailability (oral): approximately 60%
constipation, patients with adverse event [3]: 28%
